Data published in the NIST ThermoML archive (doi:10.1016/j.jct.2008.12.010).
Numbers after ± are expanded uncertainties.

Legend:
[1] = for speed of sound / mass density: 101.33 kPa, Liquid; for speed of sound: Linear variable-path acoustic interferometer; for mass density: Vibrating tube method; for surface tension liquid-gas: Drop volume
[2] = xn = mol fraction of the nth substance listed; conditions: for surface tension liquid-gas: 298.15 K, Drop volume; for speed of sound / mass density: 303.15 K, Liquid; for speed of sound: Linear variable-path acoustic interferometer; for mass density: Vibrating tube method

## Cc1ccc(C)cc1 [1,4-dimethylbenzene]
[1]; 288.15 K
  speed of sound: 1350.7 ± 2 m/s
  mass density: 865.2 ± 0.23 kg/m3
[1]; 293.15 K
  speed of sound: 1329.6 ± 2 m/s
  mass density: 860.9 ± 0.24 kg/m3
[1]; 298.15 K
  surface tension liquid-gas: 27.43 ± 0.2 mN/m
  speed of sound: 1308.4 ± 2 m/s
  mass density: 856.58 ± 0.24 kg/m3
[1]; 303.15 K
  speed of sound: 1287.4 ± 1.9 m/s
  mass density: 852.21 ± 0.24 kg/m3
[1]; 308.15 K
  speed of sound: 1266.4 ± 1.9 m/s
  mass density: 847.83 ± 0.24 kg/m3

## CCCCCCCCCC [decane]
[1]; 288.15 K
  speed of sound: 1274.4 ± 1.9 m/s
  mass density: 733.62 ± 0.24 kg/m3
[1]; 293.15 K
  speed of sound: 1254.8 ± 1.9 m/s
  mass density: 729.86 ± 0.24 kg/m3
[1]; 298.15 K
  surface tension liquid-gas: 23.1 ± 0.18 mN/m
  speed of sound: 1234.7 ± 1.9 m/s
  mass density: 726.09 ± 0.24 kg/m3
[1]; 303.15 K
  speed of sound: 1214.7 ± 1.9 m/s
  mass density: 722.3 ± 0.25 kg/m3
[1]; 308.15 K
  speed of sound: 1194.9 ± 1.9 m/s
  mass density: 718.51 ± 0.25 kg/m3

## CCOC(=O)OCC [diethyl carbonate]
[1]; 288.15 K
  speed of sound: 1218 ± 1.7 m/s
  mass density: 980.4 ± 0.13 kg/m3
[1]; 293.15 K
  speed of sound: 1197.7 ± 1.7 m/s
  mass density: 974.81 ± 0.13 kg/m3
[1]; 298.15 K
  surface tension liquid-gas: 25.43 ± 0.25 mN/m
  speed of sound: 1176.9 ± 1.7 m/s
  mass density: 969.19 ± 0.13 kg/m3
[1]; 303.15 K
  speed of sound: 1156.3 ± 1.7 m/s
  mass density: 963.6 ± 0.13 kg/m3
[1]; 308.15 K
  speed of sound: 1135.8 ± 1.7 m/s
  mass density: 957.92 ± 0.13 kg/m3

## CCOC(=O)OCC [diethyl carbonate] + CCCCCCCCCC
[2]; x1 = 0.04972
  surface tension liquid-gas: 22.98 ± 0.26 mN/m
[2]; x1 = 0.09958
  surface tension liquid-gas: 22.89 ± 0.26 mN/m
[2]; x1 = 0.1989
  surface tension liquid-gas: 22.86 ± 0.26 mN/m
[2]; x1 = 0.2966
  surface tension liquid-gas: 22.84 ± 0.26 mN/m
[2]; x1 = 0.3959
  surface tension liquid-gas: 22.89 ± 0.25 mN/m
[2]; x1 = 0.5144
  surface tension liquid-gas: 22.97 ± 0.25 mN/m
[2]; x1 = 0.5568
  surface tension liquid-gas: 22.98 ± 0.25 mN/m
[2]; x1 = 0.5996
  surface tension liquid-gas: 23.04 ± 0.25 mN/m
[2]; x1 = 0.7
  surface tension liquid-gas: 23.24 ± 0.25 mN/m
[2]; x1 = 0.7887
  surface tension liquid-gas: 23.58 ± 0.25 mN/m
[2]; x1 = 0.8986
  surface tension liquid-gas: 24.27 ± 0.25 mN/m
[2]; x1 = 0.9516
  surface tension liquid-gas: 24.76 ± 0.25 mN/m
[2]; x1 = 0.0495
  speed of sound: 1207.8 ± 1.9 m/s
  mass density: 729.09 ± 0.24 kg/m3
[2]; x1 = 0.09861
  speed of sound: 1201.1 ± 1.9 m/s
  mass density: 736.12 ± 0.24 kg/m3
[2]; x1 = 0.1979
  speed of sound: 1188.8 ± 1.9 m/s
  mass density: 751.5 ± 0.23 kg/m3
[2]; x1 = 0.3012
  speed of sound: 1177.8 ± 1.8 m/s
  mass density: 769.28 ± 0.22 kg/m3
[2]; x1 = 0.3995
  speed of sound: 1168.5 ± 1.8 m/s
  mass density: 788 ± 0.21 kg/m3
[2]; x1 = 0.504
  speed of sound: 1160.2 ± 1.8 m/s
  mass density: 810.31 ± 0.2 kg/m3
[2]; x1 = 0.5477
  speed of sound: 1157.2 ± 1.8 m/s
  mass density: 820.39 ± 0.2 kg/m3
[2]; x1 = 0.6015
  speed of sound: 1153.9 ± 1.8 m/s
  mass density: 833.53 ± 0.19 kg/m3
[2]; x1 = 0.699
  speed of sound: 1149.6 ± 1.7 m/s
  mass density: 859.54 ± 0.18 kg/m3
[2]; x1 = 0.799
  speed of sound: 1147.7 ± 1.7 m/s
  mass density: 889.41 ± 0.17 kg/m3
[2]; x1 = 0.9002
  speed of sound: 1149.1 ± 1.7 m/s
  mass density: 924.32 ± 0.17 kg/m3
[2]; x1 = 0.95
  speed of sound: 1151.4 ± 1.7 m/s
  mass density: 943.19 ± 0.16 kg/m3
